Columns and labels:
[1] = tested on: MRC-5 cells; assay: Study on cytotoxicity, WST-8 method; type: cell-based, human; conditions: 50 μM, cultured 2 days, FIG. 5
Procedure: Normal fibroblasts MRC-5 from human fetal lung were seeded in a 96-well plate at a cell density of 5,000 cells/well, and cultured for 1 day under conditions of 37° C. and 5% CO2. After the culturing, compound E1 was added to the medium at varying concentrations, and the cells were cultured for another 2 days. Then, the number of viable cells was determined using the WST-8 method, and the viability of the MRC-5 cells was calculated. In addition, for a control, SN-38, an active metabolite of the anticancer drug irinotecan, was added instead of compound E1.

[2] = tested on: PDF1.2 gene; assay: Measurement of expression level of PDF1.2 gene (2), real-time PCR; type: in vivo, Arabidopsis thaliana; conditions: 50 μM, 48 h; FIG. 3
Procedure: (§1) Arabidopsis thaliana (Col-0) seeds were sown on a transparent 96-well plate, and soaked in a 1/2 MS medium (150 μL). The seeds were left for 2-3 days in a cool and dark place, and then left to grow under long-day treatment conditions for 10 days. Thereafter, the medium was replaced with a 1/2 MS medium (100 μL) containing compound E1 (50 μM), compound E4 (50 μM), or compound E5 (50 μM), and comparative compounds C1 and C2, vacuum treatment was applied for 10 min, and the seeds were left in the light for 48 h. Eight individual plantlets and 2 beads for crushing were placed in a tube, and immediately frozen with liquid nitrogen and stored at −80° C. In addition, for a negative control, DMSO was added instead of each of compounds E1, E4, and E5. Then, similarly to Test Example 2, RNA was extracted from the frozen sample, and the expression level of the PDF1.2 gene was quantitatively determined by reverse transcription real-time PCR.

[3] = tested on: PDF1.2 gene; assay: Measurement of expression level of PDF1.2 gene (1), real-time PCR; type: in vivo, Arabidopsis thaliana; conditions: 24 h, relative expression (ΔΔCt, EF1-α reference)
Procedure: Arabidopsis thaliana (Col-0) seeds were sown on a transparent 96-well plate, and soaked in a 1/2 MS medium (150 μL). The seeds were left for 2-3 days in a cool and dark place, and then left to grow under long-day treatment conditions for 9-10 days. Thereafter, the medium was replaced with a 1/2 MS medium (100 μL) containing compound E1 (25 μM) or compound E2 (50 μM), vacuum treatment was applied for 10 min, and the seeds were left in the light for 24 h. About 20 to 60 mg of the plantlets (about 3 individuals) and 2 beads for crushing were placed in a tube, and immediately frozen with liquid nitrogen and stored at −80° C. In addition, for a negative control, DMSO was added instead of each of compounds E1 and E2. […] The concentration of the total RNA obtained was measured, and the total RNA was mixed with RNAse-free H2O to 1/12 μg/μL (6 μL H2O for 0.5 μg of the total RNA), and the mixture was placed in a PCR tube, incubated at 65° C. for 5 min, and then quenched on ice. […] Then, CFX Connect Real-Time PCR Detection System (Bio-Rad) was used to quantitatively determine the expression level of PDF1.2 gene. […] For quantification, the ΔΔCt method was used, and this value was expressed as the relative expression level. […]

[4] = tested on: PDF1.2 gene; assay: Measurement of expression level of PDF1.2 gene (3), real-time PCR; type: in vivo, Arabidopsis thaliana; conditions: 50 μM, 48 h; FIG. 4
Procedure: as §1, with “3-7” for “2-3”, “μM),” for “μM), compound E4 (50 μM),”, “E6” for “E5”, “E1” for “E1, E4,”, “E6.” for “E5.”

[5] = tested on: Arabidopsis thaliana (Col-0); assay: Measurement of amount of endogenous jasmonic acid production (LC-MS/MS); type: in vivo; conditions: 50 μM, 24 h in the light, vs DMSO negative control; FIG. 1 (*p<0.05; **p<0.01)
Procedure: Arabidopsis thaliana (Col-0) seeds were sown on a transparent 96-well plate, and soaked in a 1/2 MS medium (150 μL). The seeds were left for 2-3 days in a cool and dark place, and then left to grow under long-day treatment conditions for 9-10 days. Thereafter, the medium was replaced with a 1/2 MS medium (100 μL) containing each (50 μM) of compounds E1, E2, and E3, and comparative compounds C1 and C2, vacuum treatment was applied for 10 min, and the seeds were left in the light for 24 h. About 20 to 60 mg of the plantlets (about 3 individuals) and 2 beads for crushing were placed in a tube, and immediately frozen with liquid nitrogen and stored at −80° C. In addition, for a negative control, DMSO was added instead of each of compounds E1, E2, and E3, and comparative compounds C1 and C2.
The frozen sample was crushed using a bead-type homogenizer (Bead Smash 12; WakenBtech Co., Ltd.) under conditions of 3,000 rpm for 60 sec, and then 1 mL of an aqueous solution of 70% methanol plus 1% acetic acid and 10 ng of d2-JA (internal standard) were added. The mixture was mixed thoroughly by vortexing. This solution was centrifuged at 10,000 rpm for 5 min and the supernatant was collected. The same process was repeated two more times without the addition of the internal standard, and a total of 3 mL of an extract was collected.
The solutions were then applied to a Sep-Pak (registered trademark) Vac 3cc (500 mg) C18 Cartridge (Waters) in the following order of 1. to 6.
1. acetonitrile (one column volume, about 3 mL) 2. 100% methanol (one column volume) 3. distilled water (one column volume) 4. aqueous solution of 70% methanol+1% acetic acid (two column volumes) 5. sample supernatant (total amount) 6. aqueous solution of 70% methanol+1% acetic acid (one column volume) […]
Then, the amount of endogenous jasmonic acid (JA) production was determined by LC-MS/MS. […]

Row | Compound | expression level of PDF1.2 gene [2] | expression level of PDF1.2 gene [4] | amount of endogenous jasmonic acid production [5] | also measured
1 | COc1ccc(Oc2cccc(F)c2C#N)cc1 [compound E1] | markedly enhanced | markedly enhanced | significantly increased | viability of the MRC-5 cells [1]: exceeds 60%; expression level of PDF1.2 gene ([3]; 25 μM, FIG. 2A): markedly enhanced
2 | N#Cc1c(Cl)cccc1Oc1ccc(-c2nnco2)cc1 [compound E2] | – | – | significantly increased | expression level of PDF1.2 gene ([3]; 50 μM, FIG. 2B): markedly enhanced
3 | N#Cc1c(F)cccc1Oc1ccccc1 [compound E3] | – | – | significantly increased | –
4 | COc1ccc(Oc2cccc(Cl)c2C#N)cc1 [compound E4] | markedly enhanced | – | – | –
5 | COc1ccc(Oc2cccc(Br)c2C#N)cc1 [compound E5] | markedly enhanced | – | – | –
6 | CC(C)Oc1ccc(Oc2cccc(F)c2C#N)cc1 [compound E6] | – | markedly enhanced | – | –

Reference: patent US20220022395A1, “JASMONIC ACID ENDOGENY PROMOTING AGENT, AND METHOD FOR PROMOTING JASMONIC ACID ENDOGENY” (Tokyo University of Science Foundation, priority 2018, published 2022)
